The values that follow come from US6994970B1, “Peptides for combating the autoantibodies that are responsible for dilatative cardiomyopathy (DCM)” (Fresenius Medical Care Affina GmbH, priority 1999, dated 2006).

The subject of this assay is auto-antibodies bound to the affinity chromatographic column. As to the kind of experiment: Eluted auto-antibodies tested for preferential binding to peptide 1 or peptide 2 bound to a solid phase. Also on record: species or system human. As to the method: After elution from the affinity matrix, the auto-antibodies bound to the affinity chromatographic column were tested for preferential binding to peptide 1 or peptide 2 by means of peptide 1 and peptide 2 bound to a solid phase. Auto-antibody type 1 prefers the binding of peptide 1, and auto-antibody type 2 prefers the binding of peptide 2.

As for HWWRAESDEARRSYNDPKC [Peptide 2], the “preferential binding of auto-antibodies to peptide 1 or peptide 2” value (auto-antibodies of person 2, peptides bound to a solid phase) is “preferably bind”.
TGSFFCELWTSGKK [Peptide 1]: the “preferential binding of auto-antibodies to peptide 1 or peptide 2” value (auto-antibodies of person 1, peptides bound to a solid phase) was “preferably bind”.
